Like-named read-outs stand apart in the source and are kept apart here.
How the values were obtained:
[1] = test system: bacterial microflora on rice seeds; test: Growth of bacterial microflora on treated rice seeds; assay type: cell-based
Protocol: (§1) During phytopathological analyses of agricultural crops, the species composition of fungal and bacterial microflora was established. Laboratory studies were carried out on two nutrient media potato-agar (ingredients: potatoes—200 g; agar-agar—20 g; distilled water—1000 mL.) and potato-dextrose agar (ingredients: potatoes—200 g;dextrose—20 g; agar-agar—20 g; distilled water—1000 mL), according to the guidelines.
(§2) When evaluating the effectiveness of treatment of wheat, alfalfa, barley, rice, and sorghum seeds as fungicidal and bactericidal agents with preparation compounds at concentrations of 10, 20, and 40 mmol, their effect on the suppression of seed infection was evaluated.

SH-SY5Y (neuroblastoma) = test: Cell viability, MTT test; assay type: cell-based, Human; conditions: for IC50: Homo sapiens, SH-SY5Y, read-out: IC50 (concentration causing 50% inhibition of cell population growth)
Protocol: (§3) In this work, the cytotoxic potential of the water-soluble salts based on benzofuroxan was determined by the effect of compounds on the survival of the cell tumor origin cultures (SH-SY5Y, Hep2, A549, HeLa) using the MTT test. To understand how the synthesized compounds can influence the healthy microenvironment in the body, the effect of substances on the viability of a normal Hek 293 cell culture was additionally evaluated.
(§4) Human cell cultures of tumor origin—SH-SY5Y (neuroblastoma), HeLa (cervical tumor), Hep-2 (larynx carcinoma), A549 (adenocarcinomic human alveolar basal epithelial cells)—and normal cell line Hek 293 (human embryonic kidneys), provided by the Laboratory of Tumor Cell Genetics of the Scientific Research Institute of Carcinogenesis, N.N. Blokhin National Medical Research Center of Oncology, as well as the Institute of Cytology of the Russian Academy of Sciences, were grown in a nutrient medium DMEM (PanEco, Moscow, Russia) and MEM (PanEco, Moscow, Russia), containing fetal bovine serum (10% by volume) (ThermoFisher Scientific, Paisley, UK), Glutamax (2 mM) (Gibco, Scotland, UK), and penicillin-streptomycin (1% by volume) (PanEco, Moscow, Russia). The cultivation was carried out at 37 °C in a humidified CO2 atmosphere (5%).
(§5) Cell viability was determined by MTT test. Cells were seeded in a 96-well plate in the amount of 1 × 10^4 cells/200µLof complete nutrient medium and cultured at 37 °C in CO2 (5%). After 24 h of incubation, various concentrations of test compounds in the range from 0.1 to 100 μM, were added to the cell cultures, and then the cells were cultured under the same conditions for 24 and 72 h. For each concentration, the experiment was carried out in triplicate.
(§6) All compounds were dissolved in DMSO, then diluted with the medium to the required concentration. […] The DMSO was also added to the control wells in a volume of 1%. After the incubation time, MTT (3-(4,5-dimethylthiazol-2-yl)-2,5-diphenyltetrazolium bromide, 5 mg/mL) was added to each well and plates were additionally incubated for 2 h (until the characteristic color appeared).
(§7) Using a plate analyzer (Cytation3, BioTech Instruments Inc., Winooski, VT, USA), the optical density was determined at 530 nm. The concentration value causing 50% inhibition of cell population growth (IC50) was determined from dose-dependent curves.

[2] = test system: bacterial microflora on barley seeds; test: Growth of bacterial microflora on treated barley seeds; assay type: cell-based; conditions: all studied doses
Protocol: as §1, §2

[3] = test system: Hek 293 (human embryonic kidneys); test: Cell viability, MTT test, normal cell line; assay type: cell-based; conditions: read-out: IC50 (concentration causing 50% inhibition of cell population growth)
Protocol: as §3, §4, §5, §6, §7

[4] = test system: glycolysis in SH-SY5Y cells; test: Glycolysis stress test (ECAR, Seahorse XF96e); assay type: cell-based, Human; conditions: 100 µM
Protocol: Using the cell metabolism analyzer Agilent Seahorse XF96e Analyzer (Seahorse Bioscience, North Billerica, MA, USA), the rate of extracellular acidification of the medium (ECAR) in cells of tumor origin SH-SY5Y was evaluated as a glycolysis measure.
The ability of compounds to suppress anaerobic glycolysis was studied using the Agilent Seahorse XF96e Analyzer (Seahorse Bioscience, North Billerica, MA, USA) by the level of hydrogen proton production in the studied samples on cell lines of neuroblastoma SH-SY5Y using a glycolysis stress test [62]. The rate of extracellular acidification of the medium was measured in real time, which made it possible to assess the intensity of glycolysis in cells by fixing the three main parameters of the glycolytic function: basal glycolysis, glycolytic capacity, and glycolytic reserve.
SH-SY5Y cells in the exponential growth phase were seeded in a 96-well Seahorse cell culture microplate. The planting density of the cell culture was 2 × 10^4/well. […]
The test compounds were added from port A at a concentration of 100 μM. To determine the effect of test compounds on basal glycolysis of neoplastic cells, 10 mM glucose was added from port B. The maximum glycolytic capacity was assessed by injecting oligomycin at a concentration of 1 μM from port C. […]

[5] = test system: murine leukemia P388 in BDF1 mice; test: Antitumor activity in vivo, transplanted murine leukemia P388; conditions: for increase in the average lifespan (ILS): single i.p. injection; for lifespan of animals: single i.p., doses from 1/8 MPD to MPD, control animals all die by day 11
Protocol: The study of the antitumor activity of compounds 4e and 4g was carried out using transplanted experimental murine tumor leukemia P388. In the experiment, concentrations from 1.25 to 10 mg/kg were used for 4e, and from 0.625 to 5 mg/kg for 4g. The concentrations used correspond to values from 1/8 MPD to MPD for the studied compounds.
Studies of antitumor activity were carried out on hybrid male mice BDF1 [DBA2×C57Bl6] weighing from 22 to 24 g. In the experiment, clinically healthy animals were used, which were kept in the same conditions with a 12-h light and free access to water and food. Each experimental group included six animals. Transplantation of mouse leukemia P388 was performed intraperitoneally with a concentration of 10^6 cells in 200μLof 0.9% NaCl solution per animal. Compounds 4e and 4g were dissolved in 0.9% NaCl solution and administered intraperitoneally once in the dose range 1.25–10 mg/kg and 0.625–5 mg/kg, respectively. The compounds were administered the next day after tumor cell transplantation. Control animals received 0.9% NaCl solution. The effectiveness of therapy was assessed by the increase in the average life span (ILS, %) of the animals.

alfalfa seeds = test: Pre-sowing seed treatment, sowing qualities of alfalfa seeds; assay type: in vivo; conditions: for germination energy / laboratory germination: control 76
Protocol: as §2
[…] The sowing qualities were evaluated (germination energy for 3–4 days, laboratory germination for 7–8 days) according to GOST 12038-84 [60]. Sowing qualities of seeds were determined in wet chambers. According to the sample, 50 seeds were taken in 4-fold repetition.

[6] = test system: fungal microflora (mushrooms) on alfalfa seeds; test: Growth of fungal microflora on treated alfalfa seeds; assay type: cell-based; conditions: 10 mmol
Protocol: as §1
When evaluating the effectiveness of treatment of wheat, alfalfa, barley, rice, and sorghum seeds as […], their effect on the suppression of seed infection was evaluated.

SMILES | IC50 (SH-SY5Y (neuroblastoma); 24 h) | IC50 (SH-SY5Y (neuroblastoma); 72 h) | IC50 ([3]; HEK293, 24 h) | IC50 ([3]; HEK293, 72 h) | lifespan of animals [5] | germination energy (alfalfa seeds; 10 mmol) | laboratory germination (alfalfa seeds; 10 mmol) | germination energy (alfalfa seeds; 20 mmol) | laboratory germination (alfalfa seeds; 20 mmol) | germination energy (alfalfa seeds; 40 mmol) | laboratory germination (alfalfa seeds; 40 mmol) | other results
O=[N+]([O-])c1c(Cl)cc2c(no[n+]2[O-])c1NCCCN1CCOCC1 [4e, 6-chloro-4-(3-(morpholino-4-ium)propylamino)-5-nitrobenzo[c][1,2,5]oxadiazole 1-oxide chloride] | 24.1 ± 1.22 µM | 20.2 ± 0.72 µM | 99 ± 2.09 µM | 86.5 ± 5.75 µM | up to 16 days | 46.6% | 46.6% | 78.5% | 79.5% | 73% | 74% | effect on bacterial microflora ([1]; 10 mmol): positive effect on the suppression of bacterial microflora; effect on bacterial microflora ([1]; 20 mmol): positive effect on the suppression of bacterial microflora; selectivity index (SH-SY5Y (neuroblastoma); IC50 on neuroblastoma SH-SY5Y with respect to Hek 293, 24 h): more than 4; effect on bacterial microflora [2]: slight suppression of the bacterial microflora; suppression of glycolytic function parameters ([4]; compared with control samples): 60%; increase in the average lifespan (ILS) ([5]; 2.5 mg/kg): 28%
CN(C)CCCNc1c([N+](=O)[O-])c(Cl)cc2c1no[n+]2[O-].Cl [4g, 6-chloro-4-(3-(dimethylammonio)propylamino)-5-nitrobenzo[c][1,2,5]oxadiazole 1-oxide chloride] | 20.9 ± 0.82 µM | 17.07 ± 0.03 µM | 21.9 ± 0.39 µM | 12 ± 1.12 µM | up to 16 days | 56.6% | 60% | 43.3% | 63.3% | 80% | 80% | effect on fungal microflora [6]: positive effect on the suppression of fungal microflora; glycolytic parameters (basal glycolysis, glycolytic capacity, glycolytic reserve) ([4]; ECAR): reaching a minimum; increase in the average lifespan (ILS) ([5]; 5 mg/kg): 25%; sowing qualities of seeds compared with control (alfalfa seeds; 40 mmol): higher than controls
